Holding throughout (format): physicochemical
A short description of data set [1]: Solubility in water.
The nature of data set [2]: Storage temperature (thermal stability).
Data set [3] can be described thus: Solubility in methanol.
Data set [4] in a line: pH stability. As to conditions: for pH stability: pH range in which stable.
Data set [5] in a line: pKa.

The record followed here is patent publication US20050100534A1 (priority 2000, published 2005).

Usually pKa stands for the negative logarithm of the acid dissociation constant.

Take `O=C(O)[C@H](CO)O[C@@H]1O[C@H](CO)[C@@H](O)[C@H](O)[C@@H]1O`: in data set [1], the Solubility in water result is on record as “Very good; 60-70% (w/v)”. Moreover, the Storage temperature entry in data set [2] is “up to 95 °C”. In addition, the Solubility in methanol in data set [3] was determined as 10%. Also, the pH stability in data set [4] was 2-12. In data set [5], this compound yielded a pKa of about 4.6.
Consider `NC(=O)[C@H](CO)O[C@@H]1O[C@H](CO)[C@@H](O)[C@H](O)[C@@H]1O` [Firoin-A, β-mannosylglyceramide], for which the “pH stability: alkaline hydrolysis above pH” value in data set [4] (pH above which alkaline hydrolysis occurs) was “>pH 8-9”. In addition, the pH stability result in data set [4] is on record as “Alkaline hydrolysis;”.
